≈ marks a conversion by molar mass, not a printed value.
Columns and labels:
[1] = Membrane permeability, Pampa assay; conditions: for Papp at 5 h, 10 μM: PAMPA, pH 7.4
Protocol: The capacity of compounds of the invention to cross a lipophilic membrane was evaluated in a Pampa assay, using an assay plate containing structured layers of phospholipids supported on a PVDF filter (Benton Dickinson). […] Each compound was tested in triplicate and was prepared as a 10 μM solution in 10 mM PBS pH=7.4 buffer containing 2% DMSO. Compounds were dosed in the donor chamber of the assay plate and incubated for 5 hours, at room temperature. Additionally, an equilibrium solution plate containing 6 μM of test compound was prepared. Test compound concentration in donor and acceptor chamber and in the equilibrium plate was quantified using HPLC-MS/MS. The subsequently calculated permeability coefficients were reported as Papp.

[2] = Solubility in aqueous solution (PBS pH 7.4); format: physicochemical; conditions: phosphate buffer saline (PBS), pH 7.4, aqueous buffer, kinetic from dmso stock; PBS pH7.4, 24 h, room temperature, theoretical concentration 200 μM
Protocol: Using a 10 mM stock solution of each compound in 100% DMSO, dilutions were prepared to a theoretical concentration of 200 μM in both phosphate buffer saline (PBS), pH7.4 and in 100% DMSO (as reference). Solutions (triplicates) were incubated at room temperature for 24 h on a shaker at 100 rpm. The solutions were then centrifugated at 13000 rpm for 30 min and the supernatant was further diluted to 2 μM in methanol. The supernatant was then analyzed by LC-MSMS. The concentration of compound in PBS supernatant was determined by comparing the MS peak area with that of the reference solution in DMSO.

[3] = Stability assay in human plasma; format: in vitro ADME; conditions: 1 μM compound
Protocol: Compounds are incubated at a concentration of 1 μM in rat (mice/rabbit/dog/rabbit) or human plasma. Samples are taken at fixed time points and the remnant of compound is determined by LC-MS/MS after protein precipitation. Half life of the compound is expressed in minutes.

[4] = target: T1, recombinant PDE4B1 (Homo sapiens, UniProt Q07343); assay: PDE4 inhibitory activity screening, PDE4B1 (HTRF, cAMP substrate); format: biochemical; conditions: 40 nM cAMP, 30 minutes, room temperature
T1 construct: host or cells: Sf9 insect cells
T1 sequence (Q07343 whole entry): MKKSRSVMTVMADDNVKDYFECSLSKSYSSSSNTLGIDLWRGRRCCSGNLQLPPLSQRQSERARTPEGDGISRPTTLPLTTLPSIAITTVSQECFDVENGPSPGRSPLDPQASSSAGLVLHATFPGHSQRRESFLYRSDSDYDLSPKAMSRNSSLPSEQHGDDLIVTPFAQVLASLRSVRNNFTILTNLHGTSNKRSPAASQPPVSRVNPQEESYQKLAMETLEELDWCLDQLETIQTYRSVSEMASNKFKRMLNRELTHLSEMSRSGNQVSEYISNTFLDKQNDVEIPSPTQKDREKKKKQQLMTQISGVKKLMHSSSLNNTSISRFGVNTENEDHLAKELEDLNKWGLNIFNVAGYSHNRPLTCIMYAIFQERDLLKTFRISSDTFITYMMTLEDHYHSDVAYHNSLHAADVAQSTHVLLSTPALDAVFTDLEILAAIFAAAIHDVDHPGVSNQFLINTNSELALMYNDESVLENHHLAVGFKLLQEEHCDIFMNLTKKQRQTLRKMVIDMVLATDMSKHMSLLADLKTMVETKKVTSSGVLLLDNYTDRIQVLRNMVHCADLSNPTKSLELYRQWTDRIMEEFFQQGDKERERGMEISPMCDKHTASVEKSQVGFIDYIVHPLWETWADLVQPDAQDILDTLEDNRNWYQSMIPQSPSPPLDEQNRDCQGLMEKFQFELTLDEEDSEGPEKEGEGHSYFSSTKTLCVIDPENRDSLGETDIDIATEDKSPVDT
Protocol: (§1) Various concentrations of the test compounds were incubated with recombinant PDE4B1 or PDE4D2 (isolated from Sf9 cells), using 40 nM cAMP as enzyme substrate. Incubation time was set to 30 minutes. The reaction was carried out at room temperature. At the end of the incubation time, residual cAMP concentration was determined, using HTRF as detection method.
(§2) The IC50 values (concentration causing a half-maximal inhibition of control specific activity) and Hill coefficients (nH) were determined by non-linear regression analysis of the inhibition curves generated with mean replicate values using Hill equation curve fitting (Y=D+[(A−D)/(1+(C/C50)nH)], where Y=specific activity, D=minimum specific activity, A=maximum specific activity, C=compound concentration, C50=IC50 and nH=slope factor).

[5] = target: T2, recombinant PDE4D2 (Homo sapiens, UniProt Q08499); assay: PDE4 inhibitory activity screening, PDE4D2 (HTRF, cAMP substrate); format: biochemical; conditions: 40 nM cAMP, 30 minutes, room temperature
T2 construct: host or cells: Sf9 insect cells
T2 sequence (Q08499 303-809 limits assumed): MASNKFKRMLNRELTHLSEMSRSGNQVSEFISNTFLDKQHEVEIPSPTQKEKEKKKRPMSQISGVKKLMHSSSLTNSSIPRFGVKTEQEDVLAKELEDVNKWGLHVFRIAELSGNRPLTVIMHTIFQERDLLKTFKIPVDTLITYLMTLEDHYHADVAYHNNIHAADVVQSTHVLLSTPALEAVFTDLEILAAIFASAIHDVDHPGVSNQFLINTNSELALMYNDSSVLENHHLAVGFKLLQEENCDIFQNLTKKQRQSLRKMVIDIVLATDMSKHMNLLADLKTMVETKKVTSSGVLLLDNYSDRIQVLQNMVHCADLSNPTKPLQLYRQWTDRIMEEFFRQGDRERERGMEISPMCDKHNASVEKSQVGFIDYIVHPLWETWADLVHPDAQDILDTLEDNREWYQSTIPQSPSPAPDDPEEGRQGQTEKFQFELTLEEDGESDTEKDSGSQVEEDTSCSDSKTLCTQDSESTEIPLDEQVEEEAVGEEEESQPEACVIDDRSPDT
Protocol: as §1, §2

[6] = Stability assay in aqueous humor; format: in vitro ADME; conditions: rabbit aqueous humor, 1 μM compound
Protocol: Compounds are incubated at a concentration of 1 μM in human or animal (e.g. rabbit) aqueous humor (AH). Samples are taken at fixed time points and the remnant of compound is determined by LC-MS/MS after protein precipitation.

| SMILES | Papp at 5 h, 10 μM [1] | solubility at 24 h [2] | half-life at 1 μM [3] | IC50 [4] | IC50 [5] | half-life at 1 μM [6] | Papp (Pampa; 10^−6 cm/s) ([1]; 10 μM in 10 mM PBS pH=7.4, 2% DMSO, 5 hours, room temperature) |
| --- | --- | --- | --- | --- | --- | --- | --- |
| O=C(CCCCOc1cc(C(=O)Nc2c(Cl)cncc2Cl)ccc1OC(F)F)NCCSC1CCOC1=O (stereo not shown) [Compound 10] | 3.7 ×10⁻⁶ cm/s | > 100 µM | < 15 min | < 10 nM | < 10 nM |  |  |
| COC(=O)c1ccc(Oc2cc(C(=O)Nc3c(Cl)cncc3Cl)ccc2OC(F)F)cc1 [Compound 21, Methyl 4-(5-((3,5-dichloropyridin-4-yl)carbamoyl)-2-(difluoromethoxy)phenoxy)benzoate] |  | 10 to 100 µM (≈ 4.83 to 48.3 µg/mL) |  | 10 to 100 nM | > 500 nM | > 120 min |  |
| CCCOC(=O)CCCCOc1cc(C(=O)Nc2c(Cl)cncc2Cl)ccc1OC(F)F [Compound 1, propyl 5-[5-{[(3,5-dichloropyridin-4-yl)amino]carbonyl}-2-(difluoromethoxy)phenoxy]pentanoate] |  | 10 to 100 µM (≈ 4.91 to 49.1 µg/mL) |  | 10 to 100 nM | 10 to 100 nM |  |  |
| CN(C)CCOC(=O)c1ccc(Oc2cc(C(=O)Nc3c(Cl)cncc3Cl)ccc2OC(F)F)cc1 [Compound 28] | 7.9 ×10⁻⁶ cm/s |  | 15 to 60 min | 10 to 100 nM | 100 to 500 nM | 60 to 120 min |  |
| O=C(Nc1c(Cl)cncc1Cl)c1ccc(OC(F)F)c(OCCCNC(CCO)C(=O)O)c1 (stereo not shown) [Met2] | 0.02 ×10⁻⁶ cm/s |  |  | > 500 nM | > 500 nM |  |  |
| O=C(Nc1c(Cl)cncc1Cl)c1ccc(OC(F)F)c(Oc2ccc(C(=O)OCCO)cc2)c1 [Compound 27] | 2.3 ×10⁻⁶ cm/s |  |  | 10 to 100 nM | 10 to 100 nM | > 120 min |  |
| O=C(CCCCOc1cc(C(=O)Nc2c(Cl)cncc2Cl)ccc1OC(F)F)OCc1ccccc1 [Compound 4] |  | < 10 µM |  | 10 to 100 nM | 100 to 500 nM |  |  |
| O=C(Nc1c(Cl)cncc1Cl)c1ccc(OC(F)F)c(Oc2cccc(C(=O)OCCO)c2)c1 [Compound 29] | 5.1 ×10⁻⁶ cm/s |  |  | < 10 nM | 10 to 100 nM |  |  |
| COC(=O)c1cccc(SCCCOc2cc(C(=O)Nc3c(Cl)cncc3Cl)ccc2OC(F)F)c1 [Compound 17] |  | < 10 µM |  | 100 to 500 nM | 100 to 500 nM |  |  |
| O=C(CCCCOc1cc(C(=O)Nc2c(Cl)cncc2Cl)ccc1OC(F)F)Oc1ccccc1F [Compound 3] |  | < 10 µM | < 15 min | 10 to 100 nM | 100 to 500 nM |  |  |
| CN(C)CCOC(=O)CCCCOc1cc(C(=O)Nc2c(Cl)cncc2Cl)ccc1OC(F)F [Compound 9] | 3 ×10⁻⁶ cm/s | 10 to 100 µM (≈ 5.2 to 52 µg/mL) | < 15 min | 10 to 100 nM | 10 to 100 nM |  |  |
| CCOC(=O)c1cccc(Oc2cc(C(=O)Nc3c(Cl)cncc3Cl)ccc2OC(F)F)c1 [Compound 22, Ethyl 3-(5-((3,5-dichloropyridin-4-yl)carbamoyl)-2-(difluoromethoxy)phenoxy)benzoate] |  |  |  | 10 to 100 nM | 100 to 500 nM |  |  |
| COC(=O)Cc1cccc(NCCCOc2cc(C(=O)Nc3c(Cl)cncc3Cl)ccc2OC(F)F)c1 [Compound 16] |  | < 10 µM | < 15 min | < 10 nM | 10 to 100 nM |  |  |
| O=C(CCCCOc1cc(C(=O)Nc2c(Cl)cncc2Cl)ccc1OC(F)F)OCC1CCCO1 (stereo not shown) [Compound 6] |  |  | 15 to 60 min | < 10 nM | 10 to 100 nM |  |  |
| O=C(Nc1c(Cl)cncc1Cl)c1ccc(OC(F)F)c(OCCCSc2ccc(C(=O)OCCO)cc2)c1 [Compound 25] |  |  |  | 10 to 100 nM | 10 to 100 nM |  |  |
| O=C(Nc1c(Cl)cncc1Cl)c1ccc(OC(F)F)c(OCCCSC2CCOC2=O)c1 (stereo not shown) [Compound 13] |  | 10 to 100 µM (≈ 5.07 to 50.7 µg/mL) | < 15 min | < 10 nM | < 10 nM |  | 6.6 10^−6 cm/s |
| CN(C)CCOC(=O)c1ccc(SCCCOc2cc(C(=O)Nc3c(Cl)cncc3Cl)ccc2OC(F)F)cc1 [Compound 26] |  |  | < 15 min | 10 to 100 nM | < 10 nM |  |  |
| O=C(Nc1c(Cl)cncc1Cl)c1ccc(OC(F)F)c(OCC2CC2)c1 [Roflumilast, reference compound] |  | < 10 µM |  |  |  |  |  |
| CN(C)CCOC(=O)c1cccc(SCCCOc2cc(C(=O)Nc3c(Cl)cncc3Cl)ccc2OC(F)F)c1 [Compound 24] |  |  | < 15 min | 10 to 100 nM | 10 to 100 nM |  |  |
| O=C(CCCCOc1cc(C(=O)Nc2c(Cl)cncc2Cl)ccc1OC(F)F)OCCN1CCOCC1 [Compound 5] |  | > 100 µM | 15 to 60 min | < 10 nM | < 10 nM |  |  |
| COC(=O)CNCCCOc1cc(C(=O)Nc2c(Cl)cncc2Cl)ccc1OC(F)F [Compound 15] | 5.6 ×10⁻⁶ cm/s | > 100 µM | 15 to 60 min | 10 to 100 nM | 10 to 100 nM | 60 to 120 min |  |
| COCCOC(=O)CCCCOc1cc(C(=O)Nc2c(Cl)cncc2Cl)ccc1OC(F)F [Compound 7] | 9.2 ×10⁻⁶ cm/s | > 100 µM | 15 to 60 min | < 10 nM | 10 to 100 nM |  |  |
| O=C(O)CNCCCOc1cc(C(=O)Nc2c(Cl)cncc2Cl)ccc1OC(F)F [Met3, 2-[(3-{5-[(3,5-dichloropyridin-4-yl)carbamoyl]-2-(difluoromethoxy)phenoxy}propyl)amino]acetic acid] | 0.02 ×10⁻⁶ cm/s |  |  | > 500 nM | > 500 nM |  |  |
| COC(=O)c1ccc(SCCCOc2cc(C(=O)Nc3c(Cl)cncc3Cl)ccc2OC(F)F)cc1 [Compound 18] |  |  |  | 100 to 500 nM | 100 to 500 nM |  |  |
| O=C(Nc1c(Cl)cncc1Cl)c1ccc(OC(F)F)c(OCCCSc2cccc(C(=O)OCCO)c2)c1 [Compound 23] |  |  |  | 10 to 100 nM | 10 to 100 nM |  |  |
| O=C(Nc1c(Cl)cncc1Cl)c1ccc(OC(F)F)c(OCCCCNC(CCO)C(=O)O)c1 (stereo not shown) [Met1] | 0.03 ×10⁻⁶ cm/s |  |  | 100 to 500 nM | 100 to 500 nM |  |  |
| O=C(CCCCOc1cc(C(=O)Nc2c(Cl)cncc2Cl)ccc1OC(F)F)OCCN1CCCC1 [Compound 8] | 7.5 ×10⁻⁶ cm/s | > 100 µM | < 15 min | < 10 nM | 10 to 100 nM |  |  |
| CN(C)CCOC(=O)c1cccc(Oc2cc(C(=O)Nc3c(Cl)cncc3Cl)ccc2OC(F)F)c1 [Compound 30] | 5.3 ×10⁻⁶ cm/s |  | < 15 min | < 10 nM | 10 to 100 nM |  |  |
| O=C(CCCCOc1cc(C(=O)Nc2c(Cl)cncc2Cl)ccc1OC(F)F)Oc1ccccc1 [Compound 2, phenyl 5-[5-{[(3,5-dichloropyridin-4-yl)amino]carbonyl}-2-(difluoromethoxy)phenoxy]pentanoate] |  | 10 to 100 µM (≈ 5.25 to 52.5 µg/mL) | < 15 min | 10 to 100 nM | 10 to 100 nM |  |  |

— patent US9126933B2, “Soft PDE4 inhibitors” (Amakem NV, priority 2011, dated 2015)
